Reference: patent US8343696B2, “Colored curable composition, fluorine-containing dipyrromethene compound and tautomer thereof, and fluorine-containing dipyrromethene metal complex and tautomer thereof, and color filter using the same and method for producing the color filter” (FUJIFILM Corporation, priority 2008, dated 2013)

What was measured:
Format in all cases: physicochemical
[1] = Transmittance at 450 nm of the color filter; settings: negative-working colored resist, 1.0 μm film; transmittance at λmax normalized to 2%
Description: The colored resist solution obtained in section 3 above was applied to an undercoat layer side of the glass substrate having an undercoat layer obtained in section 2 above by a spin coater such that a film thickness was 1.0 μm. Subsequently, the film was pre-baked at 100° C. for 120 sec, whereby a monochromatic color filter was obtained.
The transmission spectrum of the color filter obtained above was measured, and the transmittance at 450 nm was evaluated according to the following criteria. The transmittance of the color filter at 450 nm was evaluated by correcting (normalizing) the transmittance at the maximum absorption wavelength of the colorant included in the color filter to 2%. A larger transmittance indicates greater transmission of blue light, which indicates favorable magenta or violet color that can be used in a blue filter.
A: Transmittance at 450 nm was 90% or more
B: Transmittance at 450 nm was 80% or more but not more than 90%
C: Transmittance at 450 nm was not more than 80%

[2] = Light-fastness of coating film (color difference ΔEab before and after xenon lamp irradiation); settings: xenon lamp 20,000 luxes for 10 hours (200,000 lux·h)
Description: A glass substrate having undercoat layer formed by applying the colored resin composition obtained in section 3 above was irradiated with a xenon lamp at an intensity of 20,000 luxes for 10 hours (equivalent to 200,000 lux·h), and the color difference ΔEab between before and after the irradiation was determined. The light-fastness was evaluated according to the following criteria. A smaller ΔEab value indicates better light-fastness.
(§1) A: ΔEab value was less than 6
(§2) B: ΔEab value was from 6 to 10
(§3) C: ΔEab value was more than 10

[3] = Heat resistance of coating film (color difference ΔEab before and after heating); settings: 100° C. for 1 hour on hot plate
Description: A glass substrate having undercoat layer formed by applying the colored resin composition obtained in section 3 above was heat-treated at 100° C. for 1 hour using a hot plate, and the color difference (ΔEab) between before and after the heating was determined by using a […] MCPD-1000 (trade name, manufactured by Otsuka Electronics Co., Ltd.). The heat resistance was evaluated according to the following criteria. A smaller AEab value indicates better heat resistance.
as §1, §2, §3

[4] = Absorption spectrum in ethyl acetate solution (spectrophotometer UV-2400PC)
Description: In consideration of film thickness, the molar absorption coefficient of the specific metal complex compounds-1, -2, -3 and -4 of the invention is preferably as high as possible, and 60,000 or higher is preferable. The maximum absorption wavelength (λmax) thereof is preferably from 520 nm to 580 nm, and more preferably from 530 nm to 570 nm, in order to improve color purity. The maximum absorption wavelength and the molar absorption coefficient are determined by using a spectrophotometer UV-2400PC (manufactured by Shimadzu Corporation).
The molar absorption coefficient (ε) of each of the obtained compounds was measured in an ethyl acetate solution using a spectrophotometer (trade name: UV-2400PC; manufactured by Shimadzu Corporation). The absorbance (Abs) at 450 nm was evaluated by normalizing the absorbance at a maximum absorption wavelength (λmax) to 1.0. […] The measurement results of the absorbance (Abs value), maximum absorption wavelength (λmax), and molar absorption coefficient (ε) are shown in Table 1.
By the method similar to the reaction scheme in Synthesis Example 1 above, the exemplary compounds (dipyrromethene metal complex compounds or tautomers thereof) shown in Table 1 were synthesized. The identification of the compounds and the measurement of the maximum absorption wavelength (λmax) and the molar absorption coefficient (ε) of the compounds were performed similarly to Synthesis Example 1 above.

[5] = Storage stability of colored resist solution (precipitation after one month at room temperature); parameters: key: A: No precipitation was observed; B: Slight precipitation was observed; C: Precipitation was observed; settings: negative-working colored resist solution, visual precipitation
Text: 9.4 g of the resist solution obtained in section 1 above and 0.35 g of the exemplary compound Ia-12 synthesized above (a compound represented by Formula (4): dipyrromethene complex compound) were mixed and dissolved, whereby a colored resist solution (a negative-working ultraviolet-sensitive colored curable composition) was obtained.
The colored resist solution was stored for one month at room temperature, and then degree of precipitation was visually observed. The storage stability was evaluated according to the following criteria.
A: No precipitation was observed
B: Slight precipitation was observed
C: Precipitation was observed

SMILES | Light-fastness [2] | Heat resistance [3] | maximum absorption wavelength (λmax) [4] | molar absorption coefficient (ε) [4] | Abs value at 450 nm when normalized to Abs = 1.0 at λmax [4] | Storage stability [5] | Transmittance at 450 nm [1]
CC1=C(C(=O)OC2C(C(C)(C)C)CC(C)CC2C(C)(C)C)C(NC(=O)c2cccc(C(F)(F)F)c2)=[N+]2C1=Cc1c(C)c(C(=O)OC3C(C(C)(C)C)CC(C)CC3C(C)(C)C)c(NC(=O)c3cccc(C(F)(F)F)c3)[n]1[Zn-]2[OH] (stereo not drawn) [IIa-6] | A (ΔEab value was less than 6) | A (ΔEab value was less than 6) | 552 nm | 106,300 | 0.0127 | A | A (Transmittance at 450 nm was 90% or more)
CC1=C(C(=O)OC2C(C(C)(C)C)CC(C)CC2C(C)(C)C)C(NC(=O)c2ccc(C(F)(F)F)cc2F)=[N+]2C1=Cc1c(C)c(C(=O)OC3C(C(C)(C)C)CC(C)CC3C(C)(C)C)c(NC(=O)c3ccc(C(F)(F)F)cc3F)[n]1[Zn-]2[OH] (stereo not drawn) [IIa-15] | A (ΔEab value was less than 6) | A (ΔEab value was less than 6) | 550 nm | 116,700 | 0.0095 | B | A (Transmittance at 450 nm was 90% or more)
CC1=C(C(=O)OC2C(C(C)(C)C)CC(C)CC2C(C)(C)C)C(NC(=O)c2ccc(F)c([N+](=O)[O-])c2)=[N+]2C1=Cc1c(C)c(C(=O)OC3C(C(C)(C)C)CC(C)CC3C(C)(C)C)c(NC(=O)c3ccc(F)c([N+](=O)[O-])c3)[n]1[Zn-]2[OH] (stereo not drawn) [IIa-25] | A (ΔEab value was less than 6) | A (ΔEab value was less than 6) | 555 nm | 126,900 | 0.0081 | B | A (Transmittance at 450 nm was 90% or more)
CC1=C(C(=O)OC2C(C(C)(C)C)CC(C)CC2C(C)(C)C)C(NC(=O)c2c(F)c(F)c(O)c(F)c2F)=[N+]2C1=Cc1c(C)c(C(=O)OC3C(C(C)(C)C)CC(C)CC3C(C)(C)C)c(NC(=O)c3c(F)c(F)c(O)c(F)c3F)[n]1[Zn-]2[OH] (stereo not drawn) [IIa-39] | A (ΔEab value was less than 6) | A (ΔEab value was less than 6) | 553 nm | 109,400 | 0.0119 | A | A (Transmittance at 450 nm was 90% or more)
CC1CC(C(C)(C)C)C(OC(=O)C2=C(c3ccccc3)C3=Cc4c(-c5ccccc5)c(C(=O)OC5C(C(C)(C)C)CC(C)CC5C(C)(C)C)c(NC(=O)c5cccc(C(F)(F)F)c5)[n]4[Zn-]([OH])[N+]3=C2NC(=O)c2cccc(C(F)(F)F)c2)C(C(C)(C)C)C1 (stereo not drawn) [IIb-6] | A (ΔEab value was less than 6) | A (ΔEab value was less than 6) | 560 nm | 114,000 | 0.0079 | A | A (Transmittance at 450 nm was 90% or more)
CC1CC(C(C)(C)C)C(OC(=O)C2=C(c3ccccc3)C3=Cc4c(-c5ccccc5)c(C(=O)OC5C(C(C)(C)C)CC(C)CC5C(C)(C)C)c(NC(=O)c5ccc(OC(F)(F)F)cc5)[n]4[Zn-]([OH])[N+]3=C2NC(=O)c2ccc(OC(F)(F)F)cc2)C(C(C)(C)C)C1 (stereo not drawn) [IIb-8] | A (ΔEab value was less than 6) | A (ΔEab value was less than 6) | 561 nm | 92,600 | 0.0135 | A | A (Transmittance at 450 nm was 90% or more)

The next lines start with results.

Light-fastness [2] | Heat resistance [3] | maximum absorption wavelength (λmax) [4] | molar absorption coefficient (ε) [4] | Abs value at 450 nm when normalized to Abs = 1.0 at λmax [4] | Storage stability [5] | SMILES | Transmittance at 450 nm [1]
A (ΔEab value was less than 6) | A (ΔEab value was less than 6) | 554 nm | 111,800 | 0.0089 | A | CC1=C(C(=O)OC2C(C(C)(C)C)CC(C)CC2C(C)(C)C)C(NC(=O)c2ccc(C(F)(F)F)cc2)=[N+]2C1=Cc1c(C)c(C(=O)OC3C(C(C)(C)C)CC(C)CC3C(C)(C)C)c(NC(=O)c3ccc(C(F)(F)F)cc3)[n]1[Zn-]2[OH] (stereo not drawn) [IIa-7] | A (Transmittance at 450 nm was 90% or more)
A (ΔEab value was less than 6) | A (ΔEab value was less than 6) | 550 nm | 121,300 | 0.0084 | A | CC1=C(C(=O)OC2C(C(C)(C)C)CC(C)CC2C(C)(C)C)C(NC(=O)c2ccc(F)c(F)c2)=[N+]2C1=Cc1c(C)c(C(=O)OC3C(C(C)(C)C)CC(C)CC3C(C)(C)C)c(NC(=O)c3ccc(F)c(F)c3)[n]1[Zn-]2[OH] (stereo not drawn) [IIa-13] | A (Transmittance at 450 nm was 90% or more)
A (ΔEab value was less than 6) | A (ΔEab value was less than 6) | 551 nm | 100,100 | 0.0114 | A | CC1=C(C(=O)OC2C(C(C)(C)C)CC(C)CC2C(C)(C)C)C(NC(=O)c2cc(C(F)(F)F)cc(C(F)(F)F)c2)=[N+]2C1=Cc1c(C)c(C(=O)OC3C(C(C)(C)C)CC(C)CC3C(C)(C)C)c(NC(=O)c3cc(C(F)(F)F)cc(C(F)(F)F)c3)[n]1[Zn-]2[OH] (stereo not drawn) [IIa-14] | A (Transmittance at 450 nm was 90% or more)
A (ΔEab value was less than 6) | A (ΔEab value was less than 6) | 563 nm | 97,100 | 0.0123 | A | CC1CC(C(C)(C)C)C(OC(=O)C2=C(c3ccccc3)C3=Cc4c(-c5ccccc5)c(C(=O)OC5C(C(C)(C)C)CC(C)CC5C(C)(C)C)c(NC(=O)c5ccc(C(F)(F)F)cc5)[n]4[Zn-]([OH])[N+]3=C2NC(=O)c2ccc(C(F)(F)F)cc2)C(C(C)(C)C)C1 (stereo not drawn) [IIb-7] | A (Transmittance at 450 nm was 90% or more)
A (ΔEab value was less than 6) | A (ΔEab value was less than 6) | 560 nm | 106,300 | 0.0107 | A | CC1CC(C(C)(C)C)C(OC(=O)C2=C(c3ccccc3)C3=Cc4c(-c5ccccc5)c(C(=O)OC5C(C(C)(C)C)CC(C)CC5C(C)(C)C)c(NC(=O)c5ccc(F)c(F)c5)[n]4[Zn-]([OH])[N+]3=C2NC(=O)c2ccc(F)c(F)c2)C(C(C)(C)C)C1 (stereo not drawn) [IIb-13] | A (Transmittance at 450 nm was 90% or more)
A (ΔEab value was less than 6) | A (ΔEab value was less than 6) | 560 nm | 117,400 | 0.01 | A | CC1CC(C(C)(C)C)C(OC(=O)C2=C(c3ccccc3)C3=Cc4c(-c5ccccc5)c(C(=O)OC5C(C(C)(C)C)CC(C)CC5C(C)(C)C)c(NC(=O)c5cc(C(F)(F)F)cc(C(F)(F)F)c5)[n]4[Zn-]([OH])[N+]3=C2NC(=O)c2cc(C(F)(F)F)cc(C(F)(F)F)c2)C(C(C)(C)C)C1 (stereo not drawn) [IIb-14] | A (Transmittance at 450 nm was 90% or more)
